Laboratory results from ChEMBL document CHEMBL1201862, “PubChem BioAssay data set” (2004).
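Test compounds were applied to cells in 96-well plates for 48 hours at 5 doses. The concentration for 50% growth inhibition is given as GI50.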 Activity calls are given as the source filed them. Rule as the data show it: active = GI50 up to about 1.1 µM and inactive = higher.

Experiments:
Assay in all cases: NCI anticancer screen, dose series, 48 h
LOX IMVI = tested on: LOX IMVI
A549 = tested on: A549
SNB-75 = tested on: SNB-75
CAKI-1 = tested on: CAKI-1
HCT-116 = tested on: HCT-116
DMS-114 = tested on: DMS-114
TK-10 = tested on: TK-10
OVCAR-4 = tested on: OVCAR-4
HCT-15 = tested on: HCT-15
HT-29 = tested on: HT-29
HL-60 = tested on: HL-60
SR = tested on: SR
A498 = tested on: A498
SW-620 = tested on: SW-620
M14 = tested on: M14
NCI-H522 = tested on: NCI-H522
SK-MEL-28 = tested on: SK-MEL-28
BT-549 = tested on: BT-549
MCF7 = tested on: MCF7
PC-3 = tested on: PC-3

SMILES	GI50 (LOX IMVI)	GI50 (A549)	GI50 (SNB-75)	GI50 (CAKI-1)	GI50 (HCT-116)	GI50 (DMS-114)	GI50 (TK-10)	GI50 (OVCAR-4)	GI50 (HCT-15) [µM]	GI50 (HT-29)	GI50 (HL-60)	GI50 (SR)	GI50 (A498)	GI50 (SW-620)	GI50 (M14)	GI50 (NCI-H522)	GI50 (SK-MEL-28)	GI50 (BT-549)	GI50 (MCF7)	GI50 (PC-3)
Cc1cc2c([nH]c3ccccc32)c2c1OC(C)(C)C1C3CC(C)(C)Oc4c(C)cc5c6ccccc6n(c5c43)C21 (stereo unspecified)	> 100 µM (inactive)	> 100 µM (inactive)	> 100 µM (inactive)	> 100 µM (inactive)	> 100 µM (inactive)	> 100 µM (inactive)	> 100 µM (inactive)	> 100 µM (inactive)	> 100	> 100 µM (inactive)	> 100 µM (inactive)	> 100 µM (inactive)	> 100 µM (inactive)	> 100 µM (inactive)	> 100 µM (inactive)	> 100 µM (inactive)	> 100 µM (inactive)			
COc1ccc(C2CC(c3cc(C)ccc3O)=NC(N)=N2)cc1 (stereo unspecified)	> 100 µM (inactive)	> 100 µM (inactive)	> 100 µM (inactive)	> 100 µM (inactive)	> 100 µM (inactive)	> 100 µM (inactive)	> 100 µM (inactive)	> 100 µM (inactive)	> 100	> 100 µM (inactive)	> 100 µM (inactive)	> 100 µM (inactive)	> 100 µM (inactive)	> 100 µM (inactive)	> 100 µM (inactive)	> 100 µM (inactive)	> 100 µM (inactive)			
O=c1c2ccccc2nc(-c2ccccc2)n1NC(=S)Nc1ccc(Cl)cc1	> 100 µM (inactive)	59.7 µM (inactive)	59.4 µM (inactive)	> 100 µM (inactive)	55.1 µM (inactive)	34.4 µM (inactive)	> 100 µM (inactive)	74.3 µM (inactive)	> 100	53.8 µM (inactive)	56.9 µM (inactive)	65.9 µM (inactive)	> 100 µM (inactive)	> 100 µM (inactive)	> 100 µM (inactive)	34.7 µM (inactive)	24.1 µM (inactive)			
CCCCCCCCCCCCCC(=O)OC(/C=C/C(C)C)C(O)C(O)C(OC)C(=O)NC1CCCCNC1=O (stereo unspecified)	0.408 µM (active)	0.257 µM (active)	2.05 µM (inactive)	0.48 µM (active)	0.242 µM (active)	0.615 µM (active)	5.6 µM (inactive)	1.86 µM (inactive)	1.43	0.927 µM (active)	0.9 µM (active)	0.097 µM (active)	5.21 µM (inactive)	0.372 µM (active)	0.655 µM (active)	0.836 µM (active)	1.61 µM (inactive)	> 10 µM (inactive)	0.693 µM (active)	> 10 µM (inactive)
COc1ccc2nc3ccccc3c(NCCCCCN(CCCl)CCCl)c2c1	0.0294 µM (active)	< 0.0308 µM (active)	0.0462 µM (active)	0.0542 µM (active)	0.0295 µM (active)	0.073 µM (active)	0.381 µM (active)	0.0658 µM (active)	0.0619	0.0354 µM (active)	< 0.0157 µM (active)	< 0.01 µM (active)	0.206 µM (active)	0.0227 µM (active)	0.0581 µM (active)	0.0267 µM (active)	0.214 µM (active)	0.643 µM (active)	< 0.01 µM (active)	0.0469 µM (active)
